Test results taken from patent publication US7122570B2, “Tetrahydrocarbazol derivatives as ligands for G-protein-coupled receptors (GPCR)” (Zentaris AG, priority 2001, dated 2006).

Experiments:
GnRH receptor [1] = target: T1, GnRH receptor (Homo sapiens, UniProt P30968); assay: Receptor binding assay with 125I-triptorelin on transfected LTK cells; conditions: competition with 125I-triptorelin, whole LTK cells, 60 minutes at 37° C.
T1 sequence (P30968 1-328): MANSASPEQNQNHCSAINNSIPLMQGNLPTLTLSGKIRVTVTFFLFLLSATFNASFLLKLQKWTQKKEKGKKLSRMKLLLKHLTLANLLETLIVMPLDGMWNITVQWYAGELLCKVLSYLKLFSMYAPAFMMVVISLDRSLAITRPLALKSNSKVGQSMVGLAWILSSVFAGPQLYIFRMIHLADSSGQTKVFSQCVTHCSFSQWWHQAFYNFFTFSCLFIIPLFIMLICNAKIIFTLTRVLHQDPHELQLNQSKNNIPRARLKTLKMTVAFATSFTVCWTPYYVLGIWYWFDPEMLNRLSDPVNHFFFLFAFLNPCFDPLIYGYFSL
Description: ^125I-Triptorelin [^125I-(D)-Trp6-GnRH] is ordered from the Biotrend Company (Cologne, Germany). The specific activity in each case is 2.13 Ci/mmol. All other chemicals are ordered from commercial sources at the highest available purity.
Transfixed LTK′ cells (ATCC No. CCL-11.3) are cultivated in DMEM medium (Invitrogen Life Technologies, Germany) with penicillin (100 I.U./ml), streptomycin (0.1 mg/ml) and glutamine (0.01 mol/l) and 10% fetal calf serum (FCS; Invitrogen Life Technologies, Germany) on plastic tissue culture plates (Nunc, Germany, 245×245×20 nun).
80% confluent cell culture plates are washed twice with 50 ml of phosphate-buffered salt solution (PBS) and dissolved below with 0.01 M EDTA solution. The cells are pelletized by centrifuging at 200×g for 5 minutes in a laboratory centrifuge (Kendro, Germany). The cell pellet is resuspended in 3 ml of binding medium (DMEM; 10 mmol of Hepes; 0.5% BSA; 0.1% NaN3; 1 g/l of bacitracin (freshly added, stock 100×); 0.1 g/l of SBTI (freshly added, stock 1000×), and the cell count is determined by means of trypan blue staining in a Neubauer counting chamber. The cell suspension is set with binding medium to a concentration of 5×10^5 Z/0.05 ml.
Binding tests for competition curves are performed as duplicates. The test substances are used as 10 mmol DMSO solutions. They are diluted with binding medium to 4× the final concentration used. 25 μl of the substance dilution is mixed with 25 μl of tracer solution (^125I-triptorelin). The concentration of tracer is set to about 50,000 cpm (measured in Cobra II, γ-counter, PE Liefe Science, Germany) in the final reaction volume of 100 μl.
200 μl of a silicone/paraffin oil mixture (84%:16%) is introduced into 650 μl pointed-bottom tubes (Roth, Germany). 50 μl of the cell suspension is pipetted thereto and subsequently 50 μl of the test substance/tracer mixture. The tubes are sealed and incubated for 60 minutes at 37° C. in an incubator that rotates via the top. After incubation, the samples are centrifuged in a centrifuge (Kendro, Germany) at 900 rpm and subsequently flash-frozen in liquid N2. The tip with the cell pellet is cut off and inserted into the prepared counting tube (Roth, Germany). The remainder of the pointed-bottom tube with the remaining supernatant is also inserted into a counting tube. The measurement is made in a γ-counter for 1 minute/sample.
The evaluation of the samples is carried out after calculating the specific bond in comparison to untreated cells, after the unspecific bond (excess unlabeled ligand, 1 mmol) is removed by means of GraphPad Prism (GraphPad Software Inc., USA).

GnRH receptor [2] = target: T1, GnRH receptor; assay: Functional reporter gene assay (luciferase) in LTK cells carrying GnRH receptors, triptorelin stimulation; type: cell-based; parameters: expressed in transfected cells; host or cells: LTK cells (ATCC No. CCL-1.3), stably transfected, with CRE / CMV minimal promoter luciferase reporter; conditions: inhibition of triptorelin/Rolipram-stimulated luciferase reporter
Description: Functional Reporter Gene Assay
For performing functional tests, stable, transfixed LTK cells carrying GnRH receptors (ATCC No. CCL-1.3) with a heterologous expression of cAMP responsible elements as well as a CMV minimal promoter-driven luciferase reporter gene are used.
The cells are cultivated in DMEM medium (Invitrogen Life Technologies, Germany) with penicillin (100 I.U./ml), streptomycin (0.1 mg/ml) and glutamine (0.01 mol/l) and 10% fetal calf serum (FCS; Invitrogen Life Technologies, Germany) on plastic tissue culture plates (Nunc, Germany, 245×245×20 mm).
80% confluent cell culture plates are washed twice with 50 ml of phosphate-buffered salt solution (PBS) and subsequently dissolved with trypsin EDTA solution (Invitrogen Life Technologies, Germany). The cells are pelletized by centrifuging at 200×g for 5 minutes in a laboratory centrifuge (Kendro, Germany). The cell pellet is resuspended in 3 ml of assay medium (Invitrogen Life Technologies, Germany) with penicillin (100 I.U./ml), streptomycin (0.1 mg/ml) and glutamine (0.01 mol/l) and 10% fetal calf serum (FCS; Invitrogen Life Technologies, Germany), and the cell count is determined by means of trypan blue staining in a Neubauer counting chamber. The cell suspension is set with assay medium to a concentration of 1×10^4 Z/100 μl. The cells are suspended on white 96-well microtiter plates (Costar, Germany) and incubated for 18 hours in an incubator.
To perform tests, test substances are diluted as 10 mmol DMSO solutions in assay medium to 6× the final concentration used. 25 μl of the test substance is added to 100 μl cells and incubated for 60 minutes at 37° C., 5% CO2. Then, the addition of triptorelin (D-Trp6-GnRH)/Rolipram solution (6 mmol/6 mmol) and a renewed incubation are carried out for 6 hours at 37° C., 5% CO2.
After incubation, the addition of 50 μl of lysis/detection buffer (LucLite, PE Life Science) and the measurement in a Lumistar luminometer (BMG Labtechnologies GmBH, Germany) are carried out.
The evaluation of the samples is carried out after calculating the inhibition in comparison to untreated stimulated cells, after removal of non-stimulated controls, by means of GraphPad Prism (GraphPad Software, Inc., USA) or alternately by means of OMMM (Accelrys, Germany) Software.

Row | EC50 (GnRH receptor [1]) [nM] | EC50 (GnRH receptor [2]) [nM] | SMILES
1 | 332 | 762 | CC[C@H](C)[C@H](NC(=O)OCc1ccccc1)C(=O)N[C@]1(C(=O)N[C@H](C(N)=O)C(C)C)CCc2[nH]c3c(F)cc(F)cc3c2C1 [Compound 293, Phenylmethyl [(1S,2S)-1-[[[(3R)-3-[[[(1S)-1-(aminocarbonyl)-2-methylpropyl]amino]carbonyl]-6,8-difluoro-2,3,4,9-tetrahydro-1H-carbazol-3-yl]amino]car-bonyl]-2-methylbutyl]carbamate]
2 | 36 | 89 | CC[C@H](C)[C@H](NC(=O)[C@@]1(NC(=O)[C@@H](NC(=O)OCc2ccccc2)[C@@H](C)CC)CCc2[nH]c3c(OC)cccc3c2C1)C(N)=O [Compound 294, Phenylmethyl [(1S,2S)-1-[[[(3R)-3-[[[(1S,2S)-1-(aminocarbonyl)-2-methylbutyl]amino]carbonyl]-8-methoxy-2,3,4,9-tetrahydro-1H-carbazol-3-yl]amino]car-bonyl]-2-methylbutyl]carbamate]
3 | 18 | 7 | CC[C@H](C)[C@H](NC(=O)[C@@]1(NC(=O)[C@@H](NC(=O)OCc2ccccc2)[C@@H](C)CC)CCc2[nH]c3c(Cl)cc(Cl)cc3c2C1)C(N)=O [Compound 295, Phenylmethyl [(1S,2S)-1-[[[(3R)-3-[[[(1S,2S)-1-(aminocarbonyl)-2-methylbutyl]amino]carbonyl]-6,8-dichloro-2,3,4,9-tetrahydro-1H-carbazol-3-yl]amino]car-bonyl]-2-methylbutyl]carbamate]
4 | 22 | 14 | CC[C@H](C)[C@H](NC(=O)OCc1ccccc1)C(=O)N[C@]1(C(=O)N[C@@H](CC(C)C)C(N)=O)CCc2[nH]c3c(Cl)cc(Cl)cc3c2C1 [Compound 296, Phenylmethyl [(1S,2S)-1-[[[(3R)-3-[[[(1S)-1-(aminocarbonyl)-3-methylbutyl]amino]carbonyl]-6,8-dichloro-2,3,4,9-tetrahydro-1H-carbazol-3-yl]amino]car-bonyl]-2-methylbutyl]carbamate]
5 | 482 | 284 | CC[C@H](C)[C@H](NC(=O)OCc1ccccc1)C(=O)N[C@]1(C(=O)N[C@@H](CC2CCCCC2)C(N)=O)CCc2[nH]c3c(Cl)cc(Cl)cc3c2C1 [Compound 297, Phenylmethyl [(1S,2S)-1-[[[(3R)-3-[[[(1S)-1-(aminocarbonyl)-2-cyclohexylethyl]amino]carbonyl]-6,8-dichloro-2,3,4,9-tetrahydro-1H-carbazol-3-yl]amino]car-bonyl]-2-methylbutyl]carbamate]
6 | 1310 | 1500 | CC[C@H](C)[C@H](NC(=O)OCc1ccccc1)C(=O)N[C@]1(C(=O)N[C@@H](CCc2ccccc2)C(N)=O)CCc2[nH]c3c(Cl)cc(Cl)cc3c2C1 [Compound 299, Phenylmethyl [(1S,2S)-1-[[[(3R)-3-[[[(1S)-1-(aminocarbonyl)-3-phenylpropyl]amino]carbonyl]-6,8-dichloro-2,3,4,9-tetrahydro-1H-carbazol-3-yl]amino]car-bonyl]-2-methylbutyl]carbamate]
7 | 23 | 17 | CCC(C)[C@H](NC(=O)[C@@]1(NC(=O)[C@H](CC2CCCCC2)NC(=O)OCc2ccccc2)CCc2[nH]c3c(Cl)cc(Cl)cc3c2C1)C(N)=O (stereo partly drawn) [Compound 300, Phenylmethyl [(1S,2S)-1-[[[(3R)-3-[[[(1S)-1(aminocarbonyl)-2-methylbutyl]amino]carbonyl]-6,8-dichloro-2,3,4,9-tetrahydro-1H-carbazol-3-yl]amino]car-bonyl]-2-cyclohexylmethyl]-carbamate]
8 | 538 | 176 | CC[C@H](C)[C@H](NC(=O)[C@@]1(NC(=O)[C@@H](NC(=O)OCc2ccccc2)[C@@H](C)CC)CCc2[nH]c3c(Cl)cc(Cl)cc3c2C1)C(=O)O [Compound 301, Phenylmethyl [(1S,2S)-1-[[[(3R)-3-[[[(1S,2S)-1-(carboxy)-2-methylbutyl]amino]carbonyl]-6,8-dichloro-2,3,4,9-tetrahydro-1H-carbazol-3-yl]amino]car-bonyl]-2-methylbutyl]carbamate]
9 | 475 | 324 | CC[C@H](C)[C@H](NC(=O)[C@@]1(NC(=O)[C@H](Cc2ccc(O)cc2)NC(=O)OCc2ccccc2)CCc2[nH]c3c(Cl)cc(Cl)cc3c2C1)C(N)=O [Compound 302, Phenylmethyl [(1S)-1-[[[(3R)-3-[[[(1S,2S)-1-(aminocarbonyl)-2-methylbutyl]amino]carbonyl]-6,8-dichloro-2,3,4,9-tetrahydro-1H-carbazol-3-yl]amino]car-bonyl]-2-(4-hydroxyphenyl)-ethyl]carbamate]
10 | 38 | 18 | CC[C@H](C)[C@H](NC(=O)[C@@]1(NC(=O)[C@H](CCc2ccccc2)NC(=O)OCc2ccccc2)CCc2[nH]c3c(Cl)cc(Cl)cc3c2C1)C(N)=O [Compound 304, Phenylmethyl [(1S)-1-[[[(3R)-3-[[[(1S,2S)-1-(aminocarbonyl)-2-methylbutyl]amino]carbonyl]-6,8-dichloro-2,3,4,9-tetrahydro-1H-carbazol-3-yl]amino]car-bonyl]-3-phenylpropyl]carbamate]
